ChEMBL document CHEMBL5338769, “Discovery of Norisoboldine Analogue III11 as a Novel and Potent Aryl Hydrocarbon Receptor Agonist for the Treatment of Ulcerative Colitis” (J Med Chem, 2023)
Activity calls are given as the source filed them. No cut-off for these calls is given here.

How the values were obtained:
[1] = system: Regulatory T cell; test: Induction of cell differentiation in C57BL/6 mouse naive regulatory T cells at 1 uM incubated for 72 hrs by flow cytometric analysis; assay type: functional, cell-based
[2] = system: Mus musculus; test: Anti-colitis activity against DSS-induced ulcerative colitis C57BL/6 mouse model assessed as decrease in disease activity index score at 20 mg/kg, po administered once a day for 10 days; assay type: functional, organism-based; conditions: time 10.0 day
[3] = system: Mus musculus; test: Anti-colitis activity against DSS-induced ulcerative colitis C57BL/6 mouse model assessed as increase in IL-10 mRNA level at 20 mg/kg, po administered once a day for 10 days by qRT-PCR analysis; assay type: functional, organism-based; conditions: time 10.0 day
[4] = Induction of cell differentiation in C57BL/6 mouse naive regulatory T cells assessed as increase in cell frequency at 1 uM incubated for 72 hrs by flow cytometric analysis (reference value: 24.9%); assay type: functional
[5] = system: Mus musculus; test: Anti-colitis activity in DSS-induced ulcerative colitis C57BL/6 mouse model assessed as increase in CD4+CD25+Foxp3+ Treg cell ratio in mesenteric lymph nodes at 10 mg/kg, po administered once a day for 10 days by flow cytometric analysis (reference value: 4.5 %); assay type: functional; conditions: time 10 day
[6] = AUC(0 to infinity) in Sprague-Dawley rat at 30 mg/kg, po measured upto 1440 min by LC-MS/MS analysis; assay type: ADME, organism-based; parameters: time < 1440 min, dose 30 mg/kg, route po; conditions: in vivo
[7] = Unbound drug concentration in rat plasma at 10.74 ug/ml of total concentration measured after 12 hrs by ultrafiltration based HPLC analysis; assay type: ADME, cell-free; conditions: dose 10.74 µg/ml
[8] = Induction of cell differentiation in C57BL/6 mouse naive regulatory T cells assessed as increase in cell frequency at 10 uM incubated for 72 hrs by flow cytometric analysis (reference value: 24.9%); assay type: functional
[9] = system: EL4; test: Cytotoxicity against mouse EL4 cells assessed as inhibition of cell proliferation incubated for 72 hrs by MTT assay; assay type: functional, cell-based; conditions: EL4, 72 h
[10] = system: Mus musculus; test: Anti-colitis activity against DSS-induced ulcerative colitis C57BL/6 mouse model assessed as amelioration of epithelial change score by measuring erosion in colon at 10 to 20 mg/kg, po administered once a day for 10 days by H&E staining based histopathological analysis; assay type: functional, organism-based; conditions: dose 10-20 mg/kg, time 10.0 day
[11] = system: Mus musculus; test: Anti-colitis activity in DSS-induced ulcerative colitis C57BL/6 mouse model assessed as increase in CD4+CD25+Foxp3+ Treg cell ratio in mesenteric lymph nodes at 20 mg/kg, po administered once a day for 10 days by flow cytometric analysis (reference value: 4.5 %); assay type: functional; conditions: time 10 day
[12] = system: EL4; test: Cytotoxicity against mouse EL4 cells assessed as reduction of cell vaibility at 10 uM incubated for 72 hrs by MTT assay; assay type: functional, cell-based
[13] = system: Mus musculus; test: Anti-colitis activity against DSS-induced ulcerative colitis C57BL/6 mouse model assessed as amelioration of epithelial change score by measuring cryptitis in colon at 10 to 20 mg/kg, po administered once a day for 10 days by H&E staining based histopathological analysis; assay type: functional, organism-based; conditions: dose 10-20 mg/kg, time 10.0 day
[14] = system: Mus musculus; test: Anti-colitis activity against DSS-induced ulcerative colitis C57BL/6 mouse model assessed as amelioration of inflammation severity in colon at 10 to 20 mg/kg, po administered once a day for 10 days by H&E staining based histopathological analysis; assay type: functional, organism-based; conditions: dose 10-20 mg/kg, time 10.0 day
[15] = AUC(0 to infinity) in Sprague-Dawley rat at 3 mg/kg, iv measured upto 1440 min by LC-MS/MS analysis; assay type: ADME, organism-based; parameters: dose 3 mg/kg, time < 1440 min, route iv; conditions: in vivo
[16] = system: Mus musculus; test: Anti-colitis activity against DSS-induced ulcerative colitis C57BL/6 mouse model assessed as increase in Foxp3 mRNA level at 20 mg/kg, po administered once a day for 10 days by qRT-PCR analysis; assay type: functional, organism-based; conditions: time 10.0 day
[17] = target: T1, Aryl hydrocarbon receptor (Mus musculus, UniProt P30561); test: Activation of AhR transcription in C57BL/6 mouse naive T cells assessed as increase in UGT1A1 mRNA expression at 1 to 3 uM by qRT-PCR analysis; assay type: cell-based; conditions: t cell, dose 1-3 µM
T1 sequence (P30561 whole entry): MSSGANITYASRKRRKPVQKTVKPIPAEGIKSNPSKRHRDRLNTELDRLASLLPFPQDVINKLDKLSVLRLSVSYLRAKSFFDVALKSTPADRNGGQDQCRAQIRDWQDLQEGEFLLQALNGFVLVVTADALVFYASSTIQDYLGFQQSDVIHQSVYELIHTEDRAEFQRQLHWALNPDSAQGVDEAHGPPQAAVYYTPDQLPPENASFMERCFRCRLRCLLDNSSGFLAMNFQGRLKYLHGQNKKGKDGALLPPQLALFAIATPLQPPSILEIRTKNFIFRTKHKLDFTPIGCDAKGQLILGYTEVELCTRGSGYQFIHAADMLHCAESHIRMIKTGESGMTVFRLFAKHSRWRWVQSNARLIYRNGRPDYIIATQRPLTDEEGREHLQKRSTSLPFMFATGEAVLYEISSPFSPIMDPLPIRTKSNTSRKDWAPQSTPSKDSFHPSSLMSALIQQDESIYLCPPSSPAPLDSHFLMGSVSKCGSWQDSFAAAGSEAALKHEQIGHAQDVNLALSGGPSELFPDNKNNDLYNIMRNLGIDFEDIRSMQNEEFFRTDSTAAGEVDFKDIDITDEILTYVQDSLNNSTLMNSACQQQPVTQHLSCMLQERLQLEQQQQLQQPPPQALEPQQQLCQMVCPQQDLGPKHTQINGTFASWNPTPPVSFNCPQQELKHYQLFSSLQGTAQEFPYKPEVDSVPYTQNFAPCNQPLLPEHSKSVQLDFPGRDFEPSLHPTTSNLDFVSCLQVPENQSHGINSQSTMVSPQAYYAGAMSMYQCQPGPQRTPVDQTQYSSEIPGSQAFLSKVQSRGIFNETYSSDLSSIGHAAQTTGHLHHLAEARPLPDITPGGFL

[18] = system: Mus musculus; test: Anti-colitis activity against DSS-induced ulcerative colitis C57BL/6 mouse model assessed as amelioration of epithelial change score by measuring loss of goblet cells in colon at 10 to 20 mg/kg, po administered once a day for 10 days by H&E staining based histopathological analysis; assay type: functional, organism-based; conditions: dose 10-20 mg/kg, time 10.0 day
[19] = target: T1, Aryl hydrocarbon receptor; test: Activation of AhR transcription in C57BL/6 mouse naive T cells assessed as increase in CYP1A1 mRNA expression by measuring fold change at 3 uM by qRT-PCR analysis relative to control; assay type: cell-based; conditions: T-cell, read-out: FC
[20] = Induction of cell differentiation in C57BL/6 mouse naive regulatory T cells assessed as increase in […] mRNA level by measuring fold change at 3 uM incubated for 72 hrs by qRT-PCR analysis; assay type: functional
[21] = target: T1, Aryl hydrocarbon receptor; test: Activation of AhR transcription in C57BL/6 mouse naive T cells assessed as increase in CYP1B1 mRNA expression at 1 to 3 uM by qRT-PCR analysis; assay type: cell-based; conditions: t cell, dose 1-3 µM
[22] = system: Mus musculus; test: Anti-colitis activity against DSS-induced ulcerative colitis C57BL/6 mouse model assessed as increase in Foxp3 mRNA level by measuring fold change at 10 mg/kg, po administered once a day for 10 days by qRT-PCR analysis; assay type: functional; conditions: time 10 day
[23] = Protein binding in rat plasma at 20.13 ug/ml of total concentration measured after 12 hrs by ultrafiltration based HPLC analysis; assay type: ADME, cell-free; conditions: at 20.13 µg/mL, read-out: PPB

## COc1cc2c3c(c1)-c1ccc(O)cc1CC3NCC2 (stereo not drawn)
[1]
  Activity: Active
[2]
  Activity: Active
[3]
  Activity: Active
[4]
  Activity: 29.9%
[5]
  Activity: 7.4%
[6]
  AUC(0-inf): 8520 ng·h/mL
[7]
  Cp(f): 1440 ng/mL
[8]
  Activity: 41.7%
[9]
  IC50: 28 µM
[10]
  Activity: Active
[11]
  Activity: 8.5%
[12]
  Activity: inactive
[13]
  Activity: Active
[14]
  Activity: Active
[15]
  AUC(0-inf): 974 ng·h/mL
[16]
  Activity: Active
[17]
  Activity: Active
[18]
  Activity: Active
[19]
  fold induction at 3 µM: 4.6
[20]
  fold change (FC): 1.4
[21]
  Activity: Active
[22]
  fold change (FC): 1.88
[23]
  fraction unbound at 12 h, 20.13 ug/ml: 0.498
